Measurements: ChEMBL document CHEMBL3885861, “Open TG-GATES”

Species: Rattus norvegicus
Assay: Open TG-GATES - Regimen: Single
Type: toxicity, organism-based, Sprague-Dawley
Set-up: regimen Single, gender Male, age 6 weeks
Conditions: in vivo, po, route gavage; for KIDNEY_L / KIDNEY_R / KIDNEY_TOTAL: tissue Kidney; for LIVER: tissue Liver; for ALP / ALT / AST / BUN / CRE / DBIL / GLC / IP / K / PL / RALB / TBIL / TC / TG / TP / gamma-GTP: tissue Plasma
[1] = 100 mg/kg, 3 h, tissue Blood, dose level Middle
[2] = 100 mg/kg, 3 h, dose level Middle
[3] = 100 mg/kg, 6 h, tissue Blood, dose level Middle
[4] = 100 mg/kg, 6 h, dose level Middle
[5] = 100 mg/kg, 9 h, tissue Blood, dose level Middle
[6] = 100 mg/kg, 9 h, dose level Middle
[7] = 100 mg/kg, 24 h, tissue Blood, dose level Middle
[8] = 100 mg/kg, 24 h, dose level Middle
[9] = 1000 mg/kg, 3 h, tissue Blood, dose level High
[10] = 1000 mg/kg, 3 h, dose level High
[11] = 1000 mg/kg, 6 h, tissue Blood, dose level High
[12] = 1000 mg/kg, 6 h, dose level High
[13] = 1000 mg/kg, 9 h, tissue Blood, dose level High
[14] = 1000 mg/kg, 9 h, dose level High
[15] = 1000 mg/kg, 24 h, tissue Blood, dose level High
[16] = 1000 mg/kg, 24 h, dose level High

CC(C)OC(=O)C(C)(C)Oc1ccc(C(=O)c2ccc(Cl)cc2)cc1 [FENOFIBRATE]
Bas [1]: 0.2%
Eos [1]: 1%
Fbg [1]: 289.2 mg/dL
Ht [1]: 41%
MCHC [1]: 32.3%
Mono [1]: 3%
RBC [1]: 610 x10_4/ul
Ret [1]: 9.8%
KIDNEY_L [2]: 0.8 g
KIDNEY_R [2]: 0.8 g
KIDNEY_TOTAL [2]: 1.6 g
LIVER [2]: 8.2 g
ALP [2]: 1478.6 IU/L
ALT [2]: 46.6 IU/L
AST [2]: 79 IU/L
BUN [2]: 9.8 mg/dL
CRE [2]: 0.2 mg/dL
DBIL [2]: 0.012 mg/dL
GLC [2]: 181.2 mg/dL
IP [2]: 10.1 mg/dL
K [2]: 4.3 meq/L
PL [2]: 145.8 mg/dL
RALB [2]: 2.6 g/dL
TBIL [2]: 0.052 mg/dL
TC [2]: 79.6 mg/dL
TG [2]: 46.4 mg/dL
TP [2]: 5.4 g/dL
gamma-GTP [2]: 1.4 IU/L
Bas [3]: 0.2%
Eos [3]: 0.4%
Fbg [3]: 261.4 mg/dL
Ht [3]: 39.8%
MCHC [3]: 32.3%
Mono [3]: 2.8%
RBC [3]: 591.2 x10_4/ul
Ret [3]: 10.3%
KIDNEY_L [4]: 0.8 g
KIDNEY_R [4]: 0.8 g
KIDNEY_TOTAL [4]: 1.6 g
LIVER [4]: 7.5 g
ALT [4]: 51.2 IU/L
AST [4]: 85.8 IU/L
BUN [4]: 8.4 mg/dL
CRE [4]: 0.2 mg/dL
DBIL [4]: 0.01 mg/dL
GLC [4]: 173 mg/dL
IP [4]: 9.8 mg/dL
K [4]: 4.2 meq/L
PL [4]: 130.8 mg/dL
RALB [4]: 2.5 g/dL
TBIL [4]: 0.054 mg/dL
TC [4]: 69.6 mg/dL
TG [4]: 37.2 mg/dL
TP [4]: 5.2 g/dL
gamma-GTP [4]: 1 IU/L
Bas [5]: 0%
Eos [5]: 1%
Fbg [5]: 292.2 mg/dL
Ht [5]: 39.2%
Lym [5]: 69.2%
MCHC [5]: 32.7%
Mono [5]: 2.6%
RBC [5]: 604 x10_4/ul
Ret [5]: 10.3%
KIDNEY_L [6]: 0.8 g
KIDNEY_R [6]: 0.8 g
KIDNEY_TOTAL [6]: 1.6 g
LIVER [6]: 7 g
ALP [6]: 1457.4 IU/L
ALT [6]: 45 IU/L
AST [6]: 83.2 IU/L
BUN [6]: 6.8 mg/dL
CRE [6]: 0.2 mg/dL
DBIL [6]: 0.008 mg/dL
GLC [6]: 159.8 mg/dL
IP [6]: 9.6 mg/dL
K [6]: 3.9 meq/L
PL [6]: 125 mg/dL
RALB [6]: 2.4 g/dL
TBIL [6]: 0.054 mg/dL
TC [6]: 70.8 mg/dL
TG [6]: 29.2 mg/dL
TP [6]: 5.3 g/dL
gamma-GTP [6]: 1 IU/L
Bas [7]: 0.2%
Eos [7]: 0.8%
Fbg [7]: 259.6 mg/dL
Ht [7]: 38.8%
MCHC [7]: 32.8%
Mono [7]: 3.2%
RBC [7]: 582.4 x10_4/ul
Ret [7]: 8.5%
KIDNEY_L [8]: 0.8 g
KIDNEY_R [8]: 0.8 g
KIDNEY_TOTAL [8]: 1.7 g
LIVER [8]: 9.8 g
ALP [8]: 1873.8 IU/L
ALT [8]: 46.4 IU/L
AST [8]: 74.4 IU/L
BUN [8]: 13 mg/dL
CRE [8]: 0.2 mg/dL
DBIL [8]: 0.012 mg/dL
GLC [8]: 187.8 mg/dL
IP [8]: 8.9 mg/dL
K [8]: 4.4 meq/L
PL [8]: 122.6 mg/dL
RALB [8]: 2.5 g/dL
TBIL [8]: 0.04 mg/dL
TC [8]: 68.6 mg/dL
TG [8]: 36.4 mg/dL
TP [8]: 5.3 g/dL
gamma-GTP [8]: 1 IU/L
Bas [9]: 0.2%
Eos [9]: 0.6%
Fbg [9]: 271.2 mg/dL
Ht [9]: 40.6%
MCHC [9]: 32.5%
Mono [9]: 3.4%
RBC [9]: 616.6 x10_4/ul
Ret [9]: 10.6%
KIDNEY_L [10]: 0.8 g
KIDNEY_R [10]: 0.8 g
KIDNEY_TOTAL [10]: 1.6 g
LIVER [10]: 7.4 g
ALT [10]: 43.2 IU/L
AST [10]: 76.6 IU/L
BUN [10]: 8.2 mg/dL
CRE [10]: 0.2 mg/dL
DBIL [10]: 0.018 mg/dL
GLC [10]: 173.6 mg/dL
IP [10]: 9.3 mg/dL
K [10]: 4.3 meq/L
PL [10]: 123.2 mg/dL
RALB [10]: 2.5 g/dL
TBIL [10]: 0.062 mg/dL
TC [10]: 64.8 mg/dL
TG [10]: 28 mg/dL
TP [10]: 5.3 g/dL
gamma-GTP [10]: 1.6 IU/L
Bas [11]: 0%
Eos [11]: 0.6%
Fbg [11]: 253.6 mg/dL
Ht [11]: 39.6%
MCHC [11]: 32.5%
Mono [11]: 2.4%
RBC [11]: 609.8 x10_4/ul
Ret [11]: 10%
KIDNEY_L [12]: 0.8 g
KIDNEY_R [12]: 0.8 g
KIDNEY_TOTAL [12]: 1.6 g
LIVER [12]: 7.4 g
ALP [12]: 1256 IU/L
ALT [12]: 43.4 IU/L
AST [12]: 75.4 IU/L
BUN [12]: 7 mg/dL
CRE [12]: 0.2 mg/dL
DBIL [12]: 0.02 mg/dL
GLC [12]: 170.4 mg/dL
IP [12]: 9 mg/dL
K [12]: 4.2 meq/L
PL [12]: 116.8 mg/dL
RALB [12]: 2.5 g/dL
TBIL [12]: 0.058 mg/dL
TC [12]: 60 mg/dL
TG [12]: 28.6 mg/dL
TP [12]: 5.2 g/dL
gamma-GTP [12]: 1.2 IU/L
Bas [13]: 0%
Eos [13]: 0.6%
Fbg [13]: 283.6 mg/dL
Ht [13]: 39.8%
MCHC [13]: 32.3%
Mono [13]: 1.8%
RBC [13]: 609.2 x10_4/ul
Ret [13]: 8.8%
KIDNEY_L [14]: 0.8 g
KIDNEY_R [14]: 0.8 g
KIDNEY_TOTAL [14]: 1.6 g
LIVER [14]: 6.9 g
ALP [14]: 1470.4 IU/L
ALT [14]: 48.4 IU/L
AST [14]: 90.4 IU/L
BUN [14]: 8 mg/dL
CRE [14]: 0.2 mg/dL
DBIL [14]: 0.014 mg/dL
GLC [14]: 152.2 mg/dL
IP [14]: 8.5 mg/dL
K [14]: 3.8 meq/L
PL [14]: 119 mg/dL
RALB [14]: 2.5 g/dL
TBIL [14]: 0.048 mg/dL
TC [14]: 62.4 mg/dL
TG [14]: 32.2 mg/dL
TP [14]: 5.3 g/dL
gamma-GTP [14]: 1 IU/L
Bas [15]: 0%
Eos [15]: 1%
Fbg [15]: 259 mg/dL
Ht [15]: 39.4%
MCHC [15]: 32.5%
Mono [15]: 3.6%
RBC [15]: 603.8 x10_4/ul
Ret [15]: 9.1%
KIDNEY_L [16]: 0.8 g
KIDNEY_R [16]: 0.8 g
KIDNEY_TOTAL [16]: 1.7 g
LIVER [16]: 9.6 g
ALT [16]: 53 IU/L
AST [16]: 84.4 IU/L
BUN [16]: 13.6 mg/dL
CRE [16]: 0.2 mg/dL
DBIL [16]: 0.014 mg/dL
GLC [16]: 172.2 mg/dL
IP [16]: 8.7 mg/dL
K [16]: 4.3 meq/L
PL [16]: 112.4 mg/dL
RALB [16]: 2.5 g/dL
TBIL [16]: 0.048 mg/dL
TC [16]: 57.2 mg/dL
TG [16]: 31.6 mg/dL
TP [16]: 5.3 g/dL
gamma-GTP [16]: 1 IU/L
